Data taken from ChEMBL document CHEMBL1799932, “Antimalarial pyrido[1,2-a]benzimidazoles” (J Med Chem, 2011).
The source made the active and inactive calls. The calls are words filed in the database; no cut-off is given here.

Experiments:
Plasmodium berghei [1] = experiment: Antimalarial activity against GFP-transfected Plasmodium berghei strain ANKA infected in NMRI mouse assessed as increase in median survival time at 50 mg/kg/day, ip administered for 4 days measured up to 30 days post infection (reference value: 5 to 7 days); format: functional; details: route intraperitoneal
Plasmodium berghei [2] = experiment: Antimalarial activity against GFP-transfected Plasmodium berghei strain ANKA infected in NMRI mouse assessed as increase in median survival time at 100 mg/kg/day, po administered for 4 days measured up to 30 days post infection (reference value: 5 to 7 days); format: functional
Plasmodium falciparum [3] = system: Plasmodium falciparum
Description: (§1) Antimalarial activity against multidrug-resistant Plasmodium falciparum K1 infected in human red blood cells assessed as 3H-hypoxanthine incorporation after 48 hrs by liquid scintillation counting

Plasmodium berghei [4] = experiment: Antimalarial activity against GFP-transfected Plasmodium berghei strain ANKA infected in NMRI mouse assessed as reduction in parasitemia at 100 mg/kg/day, po administered for 4 consecutive days measured 24 hrs after last treatment by FACS analysis relative to control; format: functional; parameters: scale not given: the % may be the effect or the level left
L6 = experiment: Cytotoxicity at rat L6 cells after 72 hrs by microplate alamar blue assay; format: cell-based
Plasmodium berghei [5] = experiment: Antimalarial activity against GFP-transfected Plasmodium berghei strain ANKA infected in NMRI mouse assessed as reduction in parasitemia at 50 mg/kg/day, ip administered for 4 consecutive days measured 24 hrs after last treatment by FACS analysis relative to control; format: functional; parameters: scale not given: the % may be the effect or the level left; details: route intraperitoneal
Plasmodium falciparum [6] = experiment: microbe, parasite or virus in culture; details: K1
Description: as §1

Plasmodium falciparum [7] = experiment: microbe, parasite or virus in culture; details: Mad20/Papua New Guinea
Description: Antimalarial activity against Plasmodium falciparum Mad20

Plasmodium falciparum [8] = experiment: microbe, parasite or virus in culture; details: W2, 48 h
Plasmodium falciparum [9] = experiment: microbe, parasite or virus in culture; details: HB3
Description: Antimalarial activity against Plasmodium falciparum HB3

Plasmodium falciparum [10] = experiment: microbe, parasite or virus in culture; details: K1; remark: listed apart in the source
Description: Antimalarial activity against Plasmodium falciparum K1

Plasmodium falciparum [11] = experiment: Ratio IC50 for chloroquine to compound for multidrug-resistant Plasmodium falciparum K1; format: functional
[12] = Selectivity index, ratio IC50 for rat L6 cells to IC50 for multidrug-resistant Plasmodium falciparum K1 infected in human red blood cells; format: functional
[13] = Distribution coefficient, log D of the compound at pH 7.4; format: physicochemical; details: octanol/water
Plasmodium falciparum [14] = experiment: microbe, parasite or virus in culture; details: NF54
Description: Antimalarial activity against Plasmodium falciparum NF54

Plasmodium falciparum [15] = experiment: microbe, parasite or virus in culture; details: FC27/Papua New Guinea
Description: Antimalarial activity against Plasmodium falciparum FC27

Plasmodium falciparum [16] = experiment: microbe, parasite or virus in culture; details: FCR-3/Gambia
Description: Antimalarial activity against Plasmodium falciparum FCR3

[17] = Metabolic stability in rat liver microsomes assessed as intrinsic clearance per mg protein after 60 mins by LC-MS analysis; format: ADME, Microsome
[18] = Metabolic stability in human liver microsomes assessed as degradation half life after 60 mins by LC-MS analysis; format: ADME, Microsome
[19] = Metabolic stability in mouse liver microsomes assessed as degradation half life after 60 mins by LC-MS analysis; format: ADME, Microsome
Plasmodium berghei [20] = experiment: Antimalarial activity against GFP-transfected Plasmodium berghei strain ANKA infected in NMRI mouse assessed as reduction in parasitemia at 25 mg/kg, po administered as single dose measured on day 2 by FACS analysis; format: functional; parameters: scale not given: the % may be the effect or the level left
[21] = Metabolic stability in mouse liver microsomes assessed as intrinsic clearance per mg protein after 60 mins by LC-MS analysis; format: ADME, Microsome
[22] = Metabolic stability in human liver microsomes assessed as intrinsic clearance per mg protein after 60 mins by LC-MS analysis; format: ADME, Microsome
Plasmodium berghei [23] = experiment: Antimalarial activity against GFP-transfected Plasmodium berghei strain ANKA infected in NMRI mouse assessed as reduction in parasitemia at 25 mg/kg, po administered as single dose measured on day 3 by FACS analysis; format: functional; parameters: scale not given: the % may be the effect or the level left
Plasmodium berghei [24] = experiment: Antimalarial activity against GFP-transfected Plasmodium berghei strain ANKA infected in NMRI mouse assessed as reduction in parasitemia at 25 mg/kg, po administered as single dose measured on day 5 by FACS analysis; format: functional; parameters: scale not given: the % may be the effect or the level left
Plasmodium berghei [25] = experiment: Antimalarial activity against GFP-transfected Plasmodium berghei strain ANKA infected in NMRI mouse assessed as increase in mean survival time at 25 mg/kg, po administered as single dose (reference value: 5 days )
[26] = Metabolic stability in rat liver microsomes assessed as degradation half life after 60 mins by LC-MS analysis; format: ADME, Microsome
Plasmodium berghei [27] = experiment: Antimalarial activity against GFP-transfected Plasmodium berghei strain ANKA infected in NMRI mouse assessed as reduction in parasitemia at 50 mg/kg, po administered as single dose measured on day 4 by FACS analysis; format: functional; parameters: scale not given: the % may be the effect or the level left
Plasmodium berghei [28] = experiment: Antimalarial activity against GFP-transfected Plasmodium berghei strain ANKA infected in NMRI mouse assessed as reduction in parasitemia at 25 mg/kg, po administered as single dose measured on day 4 by FACS analysis; format: functional; parameters: scale not given: the % may be the effect or the level left
Plasmodium berghei [29] = experiment: Antimalarial activity against GFP-transfected Plasmodium berghei strain ANKA infected in NMRI mouse assessed as reduction in parasitemia at 50 mg/kg, po administered as single dose measured on day 3 by FACS analysis; format: functional; parameters: scale not given: the % may be the effect or the level left
Plasmodium berghei [30] = experiment: Antimalarial activity against GFP-transfected Plasmodium berghei strain ANKA infected in NMRI mouse assessed as reduction in parasitemia at 50 mg/kg, po administered as single dose measured on day 5 by FACS analysis; format: functional; parameters: scale not given: the % may be the effect or the level left
Plasmodium berghei [31] = experiment: Antimalarial activity against GFP-transfected Plasmodium berghei strain ANKA infected in NMRI mouse assessed as reduction in parasitemia at 50 mg/kg, po administered as single dose measured on day 2 by FACS analysis; format: functional; parameters: scale not given: the % may be the effect or the level left
Plasmodium berghei [32] = experiment: Antimalarial activity against GFP-transfected Plasmodium berghei strain ANKA infected in NMRI mouse assessed as increase in mean survival time at 50 mg/kg, po administered as single dose (reference value: 5 days )
Plasmodium falciparum [33] = experiment: Antimalarial activity against Plasmodium falciparum W2; format: functional, organism-based
Plasmodium falciparum [34] = experiment: Antimalarial activity against Plasmodium falciparum GHA; format: functional, organism-based
Plasmodium berghei [35] = experiment: Antimalarial activity against GFP-transfected Plasmodium berghei strain ANKA infected in NMRI mouse assessed as complete cure from parasite infection at 3 to 50 mg/kg, po administered as multiple dose for 4 days measured 24 hrs after last treatment; format: functional, organism-based

For `CCN(CC)CCNc1cc(-c2ccc(C(F)(F)F)cc2)c(C#N)c2nc3ccccc3n12.CS(=O)(=O)O`, the MSD (Plasmodium berghei [1]) was 11 days, the MSD (Plasmodium berghei [2]) was 11 days and the IC50 (Plasmodium falciparum [3]) was 90 nM. The Activity (Plasmodium berghei [4]) was 97.4%, the IC50 (L6; l6) was 124000 nM and the Activity (Plasmodium berghei [5]) was 95.2%.

Work on `CCN(CC)CCNc1cc(-c2ccc(C(F)(F)F)cc2)c(C#N)c2nc3ccccc3n12` yielded an IC50 (Plasmodium falciparum [6]) of 47 nM, an IC50 (Plasmodium falciparum [7]) of 104 nM and an IC50 (Plasmodium falciparum [8]) of 84 nM. For the same compound, the IC50 (Plasmodium falciparum [9]) was 60 nM, the IC50 (Plasmodium falciparum [10]) was 47 nM and the “Ratio IC50” value (Plasmodium falciparum [11]) was 3.5. The “Ratio IC50” value [12] was 612, the logD [13] was 2.94 and the IC50 (Plasmodium falciparum [14]) was 110 nM. The IC50 (L6; l6) was 28800 nM, the IC50 (Plasmodium falciparum [15]) was 175 nM and the IC50 (Plasmodium falciparum [16]) was 137 nM.

Compound `Cl.N#Cc1c(-c2ccc(C(F)(F)F)cc2)cc(NCCN2CCCC2)n2c1nc1ccccc12` has a microsomal CLint [17] of 25.8 µL/min/mg, a half-life [18] of 0.327 h and a half-life [19] of 1.13 h. The Activity (Plasmodium berghei [20]) was 14.75%, the microsomal CLint [21] was 25.6 µL/min/mg and the microsomal CLint [22] was 88.4 µL/min/mg. It also gave an Activity (Plasmodium berghei [23]) of 43.2%, an Activity (Plasmodium berghei [24]) of 63.72% and an MSD (Plasmodium berghei [25]) of 7.7 days. For the same compound, the half-life [26] was 1.12 h, the Activity (Plasmodium berghei [27]) was 73.01% and the Activity (Plasmodium berghei [28]) was 63.73%. For the same compound, the Activity (Plasmodium berghei [29]) was 47.92%, the Activity (Plasmodium berghei [30]) was 88.53% and the Activity (Plasmodium berghei [31]) was 14.04%. For the same compound, the MSD (Plasmodium berghei [32]) was 5 days.

With `CCc1nc(N)nc(N)c1-c1ccc(Cl)cc1` [PYRIMETHAMINE] the IC50 (Plasmodium falciparum [7]) was < 60 nM, the IC50 (Plasmodium falciparum [8]) was 29500 nM and the IC50 (Plasmodium falciparum [9]) was 1150 nM. The IC50 (Plasmodium falciparum [10]) was 9900 nM, the IC50 (Plasmodium falciparum [14]) was 19 nM and the IC50 (Plasmodium falciparum [15]) was < 60 nM. For the same compound, the IC50 (Plasmodium falciparum [16]) was 12 nM.

In the case of `N#Cc1c(-c2ccccc2)cc(NCCN)n2c1nc1ccccc12`, the IC50 (Plasmodium falciparum [6]) is reported as 4480 nM, the “Ratio IC50” value (Plasmodium falciparum [11]) is reported as 22 and the “Ratio IC50” value [12] is reported as 4.2. For the same compound, the logD [13] was 0.83 and the IC50 (L6; Rattus norvegicus, L6, 72 h) was 18900 nM.

Work on `CCNCCNc1cc(-c2ccc(C(F)(F)F)cc2)c(C#N)c2nc3ccccc3n12` [listing 1 of 2 here] yielded an IC50 (Plasmodium falciparum [6]) of 120 nM, an IC50 (Plasmodium falciparum [7]) of 106 nM and an IC50 (Plasmodium falciparum [8]) of 123 nM. For the same compound, the IC50 (Plasmodium falciparum [9]) was 90 nM, the IC50 (Plasmodium falciparum [10]) was 116 nM and the “Ratio IC50” value [12] was 20.5. For the same compound, the logD [13] was 2.01, the IC50 (Plasmodium falciparum [14]) was 110 nM and the IC50 (L6; Rattus norvegicus, L6, 72 h) was 2460 nM. It also gave an IC50 (Plasmodium falciparum [15]) of 110 nM and an IC50 (Plasmodium falciparum [16]) of 154 nM.

With `N#Cc1c(-c2ccccc2)cc(N2CCNCC2)n2c1nc1ccccc12` the IC50 (Plasmodium falciparum [10]) was 170 nM, the IC50 (Plasmodium falciparum [33]) was 170 nM and the IC50 (Plasmodium falciparum [34]) was 170 nM.

`CCN(CC)CCCNc1cc(-c2ccc(C(F)(F)F)cc2)c(C#N)c2nc3ccccc3n12.Cl` gave an MSD (Plasmodium berghei [1]) of 9 days, an MSD (Plasmodium berghei [2]) of 11 days and an IC50 (Plasmodium falciparum [3]) of 160 nM. It also gave an Activity (Plasmodium berghei [4]) of 93.4%, an IC50 (L6; l6) of 2230 nM and an Activity (Plasmodium berghei [5]) of 72.6%.

With `CCNCCNc1cc(-c2ccc(C(F)(F)F)cc2)c(C#N)c2nc3ccccc3n12` [listing 2 of 2 here] the Activity (Plasmodium berghei [35]) was “inactive”.

`CN(C)CCNc1cc(-c2ccc(C(F)(F)F)cc2)c(C#N)c2nc3ccccc3n12.CS(=O)(=O)O` gave an MSD (Plasmodium berghei [1]) of 11 days, an MSD (Plasmodium berghei [2]) of 13.7 days and an IC50 (Plasmodium falciparum [3]) of 140 nM. The Activity (Plasmodium berghei [4]) was 96.8%, the IC50 (L6; l6) was > 175000 nM and the Activity (Plasmodium berghei [5]) was 94.1%.

`Cl.N#Cc1c(-c2ccc(C(F)(F)F)cc2)cc(NCCN2CCCCC2)n2c1nc1ccccc12` showed a microsomal CLint [17] of 27 µL/min/mg, a half-life [18] of 0.632 h and a half-life [19] of 0.992 h. It also gave an Activity (Plasmodium berghei [20]) of 28.44%, a microsomal CLint [21] of 29.1 µL/min/mg and a microsomal CLint [22] of 45.8 µL/min/mg. It also gave an Activity (Plasmodium berghei [23]) of 28.07%, an Activity (Plasmodium berghei [24]) of 46.41% and an MSD (Plasmodium berghei [25]) of 12.7 days. It also gave a half-life [26] of 1.07 h and an Activity (Plasmodium berghei [28]) of 38.72%.
